Calls of active or inactive are those of the source. The calls are words filed in the database; no cut-off is given here.
Key:
DNA topoisomerase I [1] = molecular target: T1, DNA topoisomerase I (Leishmania donovani (strain BPK282A1), UniProt E9BRC0); experiment: Inhibition of Leishmania donovani Top1 assessed as relaxation of supercoiled pBluescript SK(+) DNA measured by agarose gel electrophoresis analysis
T1 sequence (E9BRC0 whole entry): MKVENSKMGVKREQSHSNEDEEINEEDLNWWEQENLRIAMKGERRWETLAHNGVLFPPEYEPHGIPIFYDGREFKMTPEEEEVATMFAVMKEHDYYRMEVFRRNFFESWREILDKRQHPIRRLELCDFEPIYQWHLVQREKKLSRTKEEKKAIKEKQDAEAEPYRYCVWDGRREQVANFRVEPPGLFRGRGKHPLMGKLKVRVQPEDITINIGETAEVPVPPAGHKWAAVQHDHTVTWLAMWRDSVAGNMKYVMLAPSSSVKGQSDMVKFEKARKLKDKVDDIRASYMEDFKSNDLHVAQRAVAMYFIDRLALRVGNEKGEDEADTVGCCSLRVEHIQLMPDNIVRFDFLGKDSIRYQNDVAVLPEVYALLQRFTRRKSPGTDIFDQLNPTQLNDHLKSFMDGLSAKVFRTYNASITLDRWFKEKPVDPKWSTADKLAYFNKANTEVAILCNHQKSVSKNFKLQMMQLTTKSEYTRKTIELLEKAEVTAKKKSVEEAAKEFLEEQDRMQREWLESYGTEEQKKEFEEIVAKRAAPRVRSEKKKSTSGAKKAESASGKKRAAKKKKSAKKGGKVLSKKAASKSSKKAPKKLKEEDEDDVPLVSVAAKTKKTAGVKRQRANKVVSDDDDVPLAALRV

[2] = molecular target: T2, DNA topoisomerase I (Leishmania donovani (strain BPK282A1)) (UniProt E9BRC0); experiment: Inhibition of Leishmania donovani topoisomerase I assessed as DNA intercalation using pBluscript (SK+) DNA as substrate at 50 to 200 uM incubated for 15 mins ethidium bromide staining based UV analysis; settings: dose 50-200 µM
T2 sequence (whole entry): T1 sequence (E9BRC0 whole entry)

[3] = molecular target: T2, DNA topoisomerase I (Leishmania donovani (strain BPK282A1)); experiment: Binding affinity to Leishmania donovani topoisomerase I assessed as DNA intercalation by measuring dislodging of bound fluorophore at 50 uM by EtBr displacement assay
DNA topoisomerase I [4] = molecular target: T1, DNA topoisomerase I; experiment: Inhibition of recombinant Top1 in Leishmania donovani Ag83 whole cell extract assessed as relaxation of supercoiled pBluescript SK(+) DNA measured by agarose gel electrophoresis analysis
[5] = molecular target: T2, DNA topoisomerase I (Leishmania donovani (strain BPK282A1)); experiment: Binding affinity to Leishmania donovani recombinant topoisomerase I assessed as stabilization of cleavage complex at 25 to 50 uM measured after 30 mins; settings: dose 25-50 µM
[6] = molecular target: T2, DNA topoisomerase I (Leishmania donovani (strain BPK282A1)); experiment: Binding affinity to topoisomerase I in Leishmania donovani Ag83 whole cell lysate assessed as stabilization of cleavage complex at 50 to 100 uM measured after 30 mins; format: subcellular; settings: dose 50-100 µM
Leishmania donovani [7] = experiment: Stabilization of Leishmania donovani promastigotes Top1-DNA complex assessed as formation of SDS-KCl precipitable complex incubated for 110 mins by anti-BrdU staining based spectrophotometric analysis
MCF7 = experiment: Induction of cell cycle arrest in human MCF7 cells assessed as accumulation at G1 sub population measured at 5 uM upto 24 hrs by PI staining based flow cytometry; format: functional
Leishmania donovani [8] = experiment: Antileishmanial activity in Leishmania donovani Ag83 promastigotes assessed as Top1cc-induced DNA breakdown by measuring TUNEL positive cells by confocal microscopic analysis; format: functional, organism-based; settings: time 6-12 hrs, TDE = time-dependent effect
Leishmania donovani [9] = experiment: Antileishmanial activity in Leishmania donovani Ag83 promastigotes assessed as reversible of Top1cc-induced DNA breakdown by disappearance of measuring TUNEL positive cells treated for 6 to 12 hrs followed by compound removal measured after 6 to 12 hrs by confocal microscopic analysis; format: functional, organism-based; settings: time 6-12 hrs
[10] = molecular target: T2, DNA topoisomerase I (Leishmania donovani (strain BPK282A1)); experiment: Binding affinity to antimony resistant Leishmania donovani BHU575 promastigotes recombinant topoisomerase I assessed as stabilization of cleavage complex at 50 to 100 uM measured after 30 mins; settings: dose 50-100 µM
Leishmania donovani [11] = experiment: Antileishmanial activity against antimony resistant Leishmania donovani BHU575 promastigotes assessed as cell viability by MTT assay; format: functional, organism-based
Leishmania donovani [12] = experiment: Antileishmanial activity against Leishmania donovani Ag83 promastigotes assessed as cell viability by MTT assay; format: functional, organism-based
Leishmania donovani [13] = experiment: Antileishmanial activity against Leishmania donovani Ag83 amastigotes infected in BALB/c mouse macrophage assessed as cell viability measured after 48 hrs infection by propidium iodide staining analysis relative to control; format: functional, organism-based; settings: Ag83, 48 h
Leishmania donovani [14] = experiment: Antileishmanial activity against antimony resistant Leishmania donovani BHU575 amastigotes infected in BALB/c mouse macrophage assessed as cell viability measured after 48 hrs infection by propidium iodide staining analysis relative to control; format: functional, organism-based; settings: BHU575, 48 h
[15] = Cytotoxicity against BALB/c mouse macrophage assessed as cell viability measured after 48 hrs infection by propidium iodide staining analysis relative to control; format: toxicity, cell-based; settings: mouse macrophages

Row | Compound | IC50 (DNA topoisomerase I [1]) | further results
1 | Cc1ccc(-c2nc3ccccc3c3nc4cc(C)ccn4c23)cc1 | > 10 µM | –
2 | Cc1ccn2c(c1)nc1c3ccccc3nc(-c3ccccc3)c12 | > 10 µM | –
3 | COc1cc(NS(C)(=O)=O)ccc1Nc1c2ccccc2nc2ccccc12 | – | inhibition [2]: Active; Activity [3]: Active
4 | O=[N+]([O-])c1cccc(-c2nc3ccccc3c3nc4ccccn4c23)c1 | > 10 µM | –
5 | Cc1ccc2nc3c4ccccc4ncc3n2c1 | > 10 µM | –
6 | Cc1cccn2c1nc1c3ccccc3nc(-c3cccs3)c12 | 7.25 µM | IC50 (DNA topoisomerase I [4]): 14.9 µM
7 | c1ccc(-c2nc3ccccc3c3nc4ccccn4c23)cc1 | > 10 µM | –
8 | Cc1ccc(-c2nc3ccccc3c3nc4ccccn4c23)cc1 | > 10 µM | –
9 | COc1cc([C@@H]2c3cc4c(cc3[C@@H](O[C@@H]3O[C@@H]5CO[C@@H](C)O[C@H]5[C@H](O)[C@H]3O)[C@H]3COC(=O)[C@H]23)OCO4)cc(OC)c1O | – | inhibition [2]: inactive
10 | c1ccc2c(c1)ncc1c2nc2ccccn21 | > 10 µM | –
11 | Cc1cccn2c1nc1c3ccccc3nc(-c3ccccn3)c12 | > 10 µM | –
12 | Cc1ccn2c(c1)nc1c3ccccc3ncc12 | > 10 µM | –
13 | Cc1cccn2c1nc1c3ccccc3nc(-c3ccccc3)c12 | 6.75 µM | IC50 (DNA topoisomerase I [4]): 12.8 µM
14 | Cc1cccn2c1nc1c3ccccc3nc(-c3ccc(Cl)cc3)c12 | 5.5 µM | IC50 (DNA topoisomerase I [4]): 12.5 µM
15 | COc1ccc(-c2nc3ccccc3c3nc4ccccn4c23)cc1OC | 5.25 µM | IC50 (DNA topoisomerase I [4]): 12 µM
16 | Cc1ccc(-c2nc3ccccc3c3nc4c(C)cccn4c23)cc1 | 7.25 µM | IC50 (DNA topoisomerase I [4]): 15.1 µM
17 | COc1ccc(-c2nc3ccccc3c3nc4cc(C)ccn4c23)cc1 | > 10 µM | –
18 | O=[N+]([O-])c1ccc(-c2nc3ccccc3c3nc4ccccn4c23)cc1 | > 10 µM | –
19 | Clc1ccc(-c2nc3ccccc3c3nc4ccccn4c23)cc1 | 8.52 µM | –
20 | Clc1ccc2nc3c4ccccc4ncc3n2c1 | > 10 µM | –
21 | CC[C@@]1(O)C(=O)OCc2c1cc1n(c2=O)Cc2cc3ccccc3nc2-1 [CAMPTOTHECIN] | – | Activity [5]: Active; Activity [6]: Active; Activity (Leishmania donovani [7]): Active; Activity (MCF7): Active; Activity (Leishmania donovani [8]): Tde; Activity (Leishmania donovani [9]): inactive; Activity [10]: Active; EC50 (Leishmania donovani [11]): 6.58 µM; EC50 (Leishmania donovani [12]): 3.79 µM; EC50 (Leishmania donovani [13]): 7.84 µM; EC50 (Leishmania donovani [14]): 12.8 µM; EC50 at 48 h [15]: 18.3 µM
22 | O=[N+]([O-])c1ccccc1-c1nc2ccccc2c2nc3ccccn3c12 | > 10 µM | –
23 | Brc1ccc2nc3c4ccccc4ncc3n2c1 | > 10 µM | –

From ChEMBL document CHEMBL5316350, “Novel Pyrido[2',1':2,3]imidazo[4,5-c]quinoline Derivative Selectively Poisons Leishmania donovani Bisubunit Topoisomerase 1 to Inhibit the Antimony-Resistant Leishmania Infection in Vivo” (J Med Chem, 2023)
